From PubChem BioAssay (NCI)
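GI50 marks 50% less growth. TGI denotes the concentration required for complete inhibition of growth.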

How the values were obtained:
Assay in all cases: NCI anticancer screen, dose series, 384-well format
ACHN renal = test system: ACHN renal
T-47D breast = test system: T-47D breast
IGROV1 ovarian = test system: IGROV1 ovarian
CAKI-1 renal = test system: CAKI-1 renal
OVCAR-8 ovarian = test system: OVCAR-8 ovarian
MCF7 breast = test system: MCF7 breast
MDA-MB-468 breast = test system: MDA-MB-468 breast
OVCAR-5 ovarian = test system: OVCAR-5 ovarian
SK-MEL-5 melanoma = test system: SK-MEL-5 melanoma
NCI-H226 lung = test system: NCI-H226 lung
HS 578T breast = test system: HS 578T breast
DU-145 prostate = test system: DU-145 prostate
LOX IMVI melanoma = test system: LOX IMVI melanoma
SK-MEL-28 melanoma = test system: SK-MEL-28 melanoma
SF-268 CNS = test system: SF-268 CNS
NCI-H322M lung = test system: NCI-H322M lung
M14 melanoma = test system: M14 melanoma
MOLT-4 leukemia = test system: MOLT-4 leukemia
786-0 renal = test system: 786-0 renal
HOP-92 NSCLC = test system: HOP-92 NSCLC
HCT-15 colon = test system: HCT-15 colon
HT29 colon = test system: HT29 colon
MDA-MB-231 breast = test system: MDA-MB-231 breast
SK-OV-3 ovarian = test system: SK-OV-3 ovarian
UACC-257 melanoma = test system: UACC-257 melanoma
UACC-62 melanoma = test system: UACC-62 melanoma
NCI-H522 lung = test system: NCI-H522 lung
SN12C renal = test system: SN12C renal
RPMI-8226 leukemia = test system: RPMI-8226 leukemia
A549 NSCLC = test system: A549 NSCLC
NCI/ADR-RES ovarian = test system: NCI/ADR-RES ovarian
RXF 393 renal = test system: RXF 393 renal
KM12 colon = test system: KM12 colon
HOP-62 NSCLC = test system: HOP-62 NSCLC
TK-10 renal = test system: TK-10 renal
SF-539 CNS = test system: SF-539 CNS
UO-31 renal = test system: UO-31 renal
SNB-75 CNS = test system: SNB-75 CNS
MALME-3M melanoma = test system: MALME-3M melanoma
MDA-MB-435 melanoma = test system: MDA-MB-435 melanoma
CCRF-CEM leukemia = test system: CCRF-CEM leukemia
U251 glioblastoma = test system: U251 glioblastoma
A498 renal = test system: A498 renal
SW-620 colon = test system: SW-620 colon
OVCAR-4 ovarian = test system: OVCAR-4 ovarian
SR leukemia = test system: SR leukemia
SNB-19 CNS = test system: SNB-19 CNS
BT-549 breast = test system: BT-549 breast
COLO 205 colon = test system: COLO 205 colon
K-562 leukemia = test system: K-562 leukemia
SF-295 CNS = test system: SF-295 CNS
NCI-H460 NSCLC = test system: NCI-H460 NSCLC
HCC-2998 colon = test system: HCC-2998 colon
PC-3 prostate = test system: PC-3 prostate
HL-60(TB) leukemia = test system: HL-60(TB) leukemia
EKVX NSCLC = test system: EKVX NSCLC
NCI-H23 lung = test system: NCI-H23 lung
OVCAR-3 ovarian = test system: OVCAR-3 ovarian

`CCC[C@H](N[C@H]1CCc2cc(F)cc(F)c2C1)C(=O)Nc1cn(C(C)(C)CNCC(C)(C)C)cn1` was tested, and the GI50 (ACHN renal) was 19.9 µM, the TGI (ACHN renal) was 69.4 µM and the GI50 (T-47D breast) was 6.21 µM. It also gave a TGI (T-47D breast) of 40 µM, a GI50 (IGROV1 ovarian) of 25.9 µM and a TGI (IGROV1 ovarian) greater than 100 µM. The GI50 (CAKI-1 renal) was 14.2 µM, the TGI (CAKI-1 renal) was 31.6 µM and the GI50 (OVCAR-8 ovarian) was 22.3 µM. For the same molecule, the TGI (OVCAR-8 ovarian) was greater than 100 µM, the GI50 (MCF7 breast) was 6.74 µM and the TGI (MCF7 breast) was 23.1 µM. The GI50 (MDA-MB-468 breast) was 0.603 µM, the TGI (MDA-MB-468 breast) was 6.55 µM and the GI50 (OVCAR-5 ovarian) was 21.4 µM. It also gave a TGI (OVCAR-5 ovarian) of 53.9 µM, a GI50 (SK-MEL-5 melanoma) of 11.4 µM and a TGI (SK-MEL-5 melanoma) of 23.6 µM. For the same molecule, the GI50 (NCI-H226 lung) was 15.6 µM, the TGI (NCI-H226 lung) was 40.4 µM and the GI50 (HS 578T breast) was 13 µM. For the same molecule, the TGI (HS 578T breast) was 31.7 µM, the GI50 (DU-145 prostate) was 20.6 µM and the TGI (DU-145 prostate) was 74.6 µM. For the same molecule, the GI50 (LOX IMVI melanoma) was 17.3 µM, the TGI (LOX IMVI melanoma) was 31.3 µM and the GI50 (SK-MEL-28 melanoma) was 14.7 µM. It also gave a TGI (SK-MEL-28 melanoma) of 29.3 µM, a GI50 (SF-268 CNS) of 19.8 µM and a TGI (SF-268 CNS) of 50.8 µM. It also gave a GI50 (NCI-H322M lung) of 26.3 µM, a TGI (NCI-H322M lung) of 92.6 µM and a GI50 (M14 melanoma) of 14.1 µM. The TGI (M14 melanoma) was 27.9 µM, the GI50 (MOLT-4 leukemia) was 3.46 µM and the TGI (MOLT-4 leukemia) was 15 µM. For the same molecule, the GI50 ([…]-0 renal) was 14.5 µM, the TGI (786-0 renal) was 29.9 µM and the GI50 (HOP-92 NSCLC) was 11.5 µM. It also gave a TGI (HOP-92 NSCLC) of 26.2 µM, a GI50 (HCT-15 colon) of 12 µM and a TGI (HCT-15 colon) of 25.6 µM. For the same molecule, the GI50 (HT29 colon) was 9.66 µM, the TGI (HT29 colon) was 22.7 µM and the GI50 (MDA-MB-231 breast) was 12.2 µM. The TGI (MDA-MB-231 breast) was 32.1 µM, the GI50 (SK-OV-3 ovarian) was 15.8 µM and the TGI (SK-OV-3 ovarian) was 33.2 µM. The GI50 (UACC-257 melanoma) was 5.51 µM, the TGI (UACC-257 melanoma) was 21 µM and the GI50 (UACC-62 melanoma) was 14.1 µM. It also gave a TGI (UACC-62 melanoma) of 27.4 µM, a GI50 (NCI-H522 lung) of 18.4 µM and a TGI (NCI-H522 lung) of 48.4 µM. For the same molecule, the GI50 (SN12C renal) was 33.1 µM, the TGI (SN12C renal) was greater than 100 µM and the GI50 (RPMI-8226 leukemia) was 3.03 µM. For the same molecule, the TGI (RPMI-8226 leukemia) was 14.1 µM, the GI50 (A549 NSCLC) was 22.2 µM and the TGI (A549 NSCLC) was greater than 100 µM. The GI50 (NCI/ADR-RES ovarian) was 11.1 µM, the TGI (NCI/ADR-RES ovarian) was 27.1 µM and the GI50 (RXF 393 renal) was 11.1 µM. The TGI (RXF 393 renal) was 27.1 µM, the GI50 (KM12 colon) was 16.1 µM and the TGI (KM12 colon) was 35.3 µM. It also gave a GI50 (HOP-62 NSCLC) of 17.7 µM, a TGI (HOP-62 NSCLC) of 51.2 µM and a GI50 (TK-10 renal) of 21.4 µM. The TGI (TK-10 renal) was 90 µM, the GI50 (SF-539 CNS) was 18 µM and the TGI (SF-539 CNS) was 32.1 µM. For the same molecule, the GI50 (UO-31 renal) was 14.9 µM, the TGI (UO-31 renal) was 32.4 µM and the GI50 (SNB-75 CNS) was 19.4 µM. For the same molecule, the TGI (SNB-75 CNS) was 71 µM, the GI50 (MALME-3M melanoma) was 2.64 µM and the TGI (MALME-3M melanoma) was 14.4 µM. It also gave a GI50 (MDA-MB-435 melanoma) of 20.7 µM, a TGI (MDA-MB-435 melanoma) of 61.2 µM and a GI50 (CCRF-CEM leukemia) of 6.62 µM. It also gave a TGI (CCRF-CEM leukemia) of 20 µM, a GI50 (U251 glioblastoma) of 17.3 µM and a TGI (U251 glioblastoma) of 33.1 µM. The GI50 (A498 renal) was 11.7 µM, the TGI (A498 renal) was 26.6 µM and the GI50 (SW-620 colon) was 21.4 µM. For the same molecule, the TGI (SW-620 colon) was 42.2 µM, the GI50 (OVCAR-4 ovarian) was 13.8 µM and the TGI (OVCAR-4 ovarian) was 61.9 µM. It also gave a GI50 (SR leukemia) of 3.71 µM, a TGI (SR leukemia) of 15.4 µM and a GI50 (SNB-19 CNS) of 21.9 µM. For the same molecule, the TGI (SNB-19 CNS) was 67.3 µM, the GI50 (BT-549 breast) was 6.44 µM and the TGI (BT-549 breast) was 26.2 µM. For the same molecule, the GI50 (COLO 205 colon) was 21.3 µM, the TGI (COLO 205 colon) was 97.7 µM and the GI50 (K-562 leukemia) was 5.58 µM. It also gave a TGI (K-562 leukemia) of 17 µM, a GI50 (SF-295 CNS) of 14.6 µM and a TGI (SF-295 CNS) of 30.2 µM. For the same molecule, the GI50 (NCI-H460 NSCLC) was 15.1 µM, the TGI (NCI-H460 NSCLC) was 29.4 µM and the GI50 (HCC-2998 colon) was 7.48 µM. It also gave a TGI (HCC-2998 colon) of 21.6 µM, a GI50 (PC-3 prostate) of 6.56 µM and a TGI (PC-3 prostate) of 21.8 µM. The GI50 (HL-60(TB) leukemia) was 10.7 µM, the TGI (HL-60(TB) leukemia) was 22.6 µM and the GI50 (EKVX NSCLC) was 19.2 µM. It also gave a TGI (EKVX NSCLC) of 71.8 µM, a GI50 (NCI-H23 lung) of 12.1 µM and a TGI (NCI-H23 lung) of 29.6 µM. The GI50 (OVCAR-3 ovarian) was 11.1 µM and the TGI (OVCAR-3 ovarian) was 23.5 µM.
